# Values quoted from earlier work as cited in patent publication US9180198B2, “Slow-release cilostazol tablet having an improved elution rate and minimal side effects” (KOREA UNITED PHARM, INC., priority 2009, dated 2015).
# Key:
# [1] = tested on: cAMP-PDE (cyclic AMP phosphodiesterase); conditions: in blood platelets and vascular smooth muscles
# blood platelets = blood platelets isolated from a mouse, a rat, a rabbit, a dog and a human
structure (smiles),measurement,setting,value
"O=C1CCc2cc(OCCCCc3nnnn3C3CCCCC3)ccc2N1 [cilostazol, 6-[4-(cyclohexyl-1H-tetrazol-5-yl)butoxy]-3,4-dihydro-2(1H)-quinolinone]",cAMP-PDE activity,[1],inhibit cAMP-PDE (cyclic AMP phosphodiesterase) activity
same,water solubility,,poorly water-soluble
same,"primary aggregation of blood platelets caused by ADP, epinephrine",blood platelets,suppress the primary aggregation of blood platelets
